The supplement of paper PMC10307832

Tests used:
Assay in all cases: relative viability (nuclei count vs DMSO), 5 days (fraction); higher = more cells survive
[1] = compound: C#Cc1cccc(Nc2ncnc3cc(OC)c(OCCCCCCC(=O)NO)cc23)c1 [CUDC-101] + N=C(N)NC(=N)NCCc1ccccc1 [Phenformin] (partner 250 µM)
Method in brief: (§1)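 Dosing by pin tool came one day after lung cancer cell lines were seeded in 1536-well plates, using either one drug or a fixed anchor-drug dose plus five library-drug doses (not always all listed) in √10 steps. After 5 days, nuclei were counted on 4× images. Relative viability is treated-well nuclei count divided by vehicle-well nuclei count, and values are medians of duplicate plates.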

[2] = compound: COc1cc2/c(=N/c3ccc(Br)cc3F)nc[nH]c2cc1OCC1CCN(C)CC1 [Vandetanib] + CC(=O)c1c(C)c2cnc(Nc3ccc(N4CCNCC4)cn3)nc2n(C2CCCC2)c1=O [Palbociclib] (partner 0.5 µM)
Method in brief: as §1

[3] = compound: C#Cc1cccc(Nc2ncnc3cc(OC)c(OCCCCCCC(=O)NO)cc23)c1 [CUDC-101] + CCNC(=O)c1noc(-c2cc(C(C)C)c(O)cc2O)c1-c1ccc(CN2CCOCC2)cc1 [Luminespib] (partner 0.01 µM)
Method in brief: as §1

[4] = compound: COc1cc2/c(=N/c3ccc(Br)cc3F)nc[nH]c2cc1OCC1CCN(C)CC1 [Vandetanib] + Cc1nc(Nc2ncc(C(=O)Nc3c(C)cccc3Cl)s2)cc(N2CCN(CCO)CC2)n1 [Dasatinib] (partner 0.075 µM)
Method in brief: as §1

Cell Line	relative viability ([1]; first compound 0.01 µM)	relative viability ([1]; first compound 0.03162 µM)	relative viability ([1]; first compound 0.3162 µM)	relative viability ([1]; first compound 1 µM)	relative viability ([2]; first compound 0.02 µM)	relative viability ([2]; first compound 0.06325 µM)	relative viability ([2]; first compound 0.2 µM)	relative viability ([2]; first compound 0.6325 µM)	relative viability ([2]; first compound 2 µM)	relative viability ([3]; first compound 0.01 µM)	relative viability ([3]; first compound 0.03162 µM)	relative viability ([3]; first compound 0.1 µM)	relative viability ([3]; first compound 0.3162 µM)	relative viability ([3]; first compound 1 µM)	relative viability ([4]; first compound 0.02 µM)	relative viability ([4]; first compound 0.06325 µM)	relative viability ([4]; first compound 0.2 µM)	relative viability ([4]; first compound 0.6325 µM)	relative viability ([4]; first compound 2 µM)	relative viability ([1]; first compound 0.1 µM)
NCI-H1792	0.323	0.332	0.145	0.277	0.639	0.626	0.636	0.634	0.501	0.459	0.381	0.578	0.504	0.25	0.774	0.803	0.783	0.884	0.725	
NCI-H1793	0.372	0.239	0.442	0.291	0.325	0.305	0.302	0.296	0.261	0.17	0.174	0.174	0.201	0.143	0.448	0.353	0.387	0.381	0.391	0.34
NCI-H1915	0.395	0.361	0.349	0.269	0.51	0.519	0.499	0.484	0.522	0.908	0.787	0.774	0.788	0.551	0.278	0.279	0.304	0.313	0.312	0.364
NCI-H1944	0.218	0.192	0.193	0.151	0.323	0.343	0.322	0.276	0.303	0.757	0.545	0.732	0.565	0.53	0.208	0.218	0.205	0.195	0.215	0.181
NCI-H1975	0.415	0.401	0.425	0.378	0.539	0.542	0.593	0.585	0.61	0.336	0.155	0.254	0.351	0.213	0.349	0.361	0.341	0.423	0.373	0.416
NCI-H1993	0.491	0.523	0.535	0.603	0.661	0.628	0.602	0.581	0.392	0.933	0.772	0.72	0.772	0.535	0.796	0.577	0.514	0.623	0.578	0.569
NCI-H2009	0.511	0.496	0.499	0.404	0.221	0.3	0.197	0.25	0.25	1.07	0.904	1.06	1.02	0.928	0.326	0.241	0.329	0.309	0.349	0.534
NCI-H2023	0.406	0.379	0.481	0.341	0.359	0.369		0.314	0.319	0.807	0.568	0.855	0.797	0.632	0.584	0.563	0.514	0.542	0.59	0.438
NCI-H2085	0.654	0.679	0.724	0.593	0.447	0.479	0.496	0.498	0.489	0.479	0.446	0.437	0.45	0.385	0.226	0.236	0.2	0.279	0.244	0.763
NCI-H2087	0.403	0.465	0.413	0.316	0.244	0.196	0.183	0.281	0.212	0.174	0.186	0.176	0.177	0.198	0.809	0.661	0.684	0.835	0.984	0.439
NCI-H2126	0.556	0.532	0.52	0.403	0.338	0.348	0.328	0.356	0.35	1.03	0.871	0.938	0.891	0.793	0.564	0.564	0.626	0.559	0.467	0.517
NCI-H2170	0.407	0.377	0.439	0.375	0.402	0.434	0.398	0.376	0.394	0.626	0.286	0.719	0.471	0.465	0.55	0.555	0.487	0.462	0.609	0.459
NCI-H2228	0.27	0.272	0.403	0.254	0.718	0.644	0.804	0.725	0.659	0.114	0.164	0.169	0.19	0.188	0.464	0.478	0.503	0.463	0.481	0.29
NCI-H2342	0.619	0.621	0.643	0.43	0.525	0.507	0.518	0.477	0.569	0.764	0.644	0.829	0.737	0.692	0.339	0.335	0.321	0.315	0.361	0.667
NCI-H2347	0.446	0.299	0.512	0.371	0.423	0.315	0.476	0.457	0.443	0.617	0.458	0.47	0.415	0.331	0.299		0.312	0.323	0.345	0.308
NCI-H2405	0.392	0.37	0.397	0.352	0.494	0.39	0.514	0.592	0.514	0.797	0.662	0.703	0.917	0.741	0.217	0.183	0.2	0.187	0.199	0.442
